According to PMC9963398, “Discovery of New Quinolone-Based Diarylamides as Potent B-RAF^V600E/C-RAF Kinase Inhibitors Endowed with Promising In Vitro Anticancer Activity” (International Journal of Molecular Sciences, 2023):

How the values were obtained:
MALME-3M = test: NCI-60 five-dose SRB assay; format: cell-based; details: Homo sapiens, Melanoma, five-dose test
Protocol: (§1) The anticancer screening of target compounds over a full panel of 60 human cancer cell lines was carried out using Sulforhodamine B (SRB) assay at the National Cancer Institute (NCI), Bethesda, Maryland, USA, employing the standard protocol.

CCRF-CEM = test: NCI-60 five-dose SRB assay; format: cell-based; details: Homo sapiens, Leukemia, five-dose test
Protocol: as §1

MCF7 = test: NCI-60 five-dose SRB assay; format: cell-based; details: Homo sapiens; MCF7, Breast cancer, five-dose test
Protocol: as §1

OVCAR-3 = test: NCI-60 five-dose SRB assay; format: cell-based; details: Homo sapiens; OVCAR-3, Ovarian cancer, five-dose test
Protocol: as §1

DU-145 = test: NCI-60 five-dose SRB assay; format: cell-based; details: Homo sapiens; DU-145, Prostate cancer, five-dose test
Protocol: as §1

786-0 = test: NCI-60 five-dose SRB assay; format: cell-based; details: Homo sapiens; 786-0, Renal cancer, five-dose test
Protocol: as §1

UACC-257 = test: NCI-60 five-dose SRB assay; format: cell-based; details: Homo sapiens; UACC-257, Melanoma, five-dose test
Protocol: as §1

ACHN = test: NCI-60 five-dose SRB assay; format: cell-based; details: Homo sapiens, Renal cancer, five-dose test
Protocol: as §1

NCI-H226 = test: NCI-60 five-dose SRB assay; format: cell-based; details: Homo sapiens; NCI-H226, NSCL cancer, five-dose test
Protocol: as §1

BT-549 = test: NCI-60 five-dose SRB assay; format: cell-based; details: Homo sapiens; BT-549, Breast cancer, five-dose test
Protocol: as §1

OVCAR-4 = test: NCI-60 five-dose SRB assay; format: cell-based; details: Homo sapiens; OVCAR-4, Ovarian cancer, five-dose test
Protocol: as §1

KM12 = test: NCI-60 five-dose SRB assay; format: cell-based; details: Homo sapiens; KM12, Colon cancer, five-dose test
Protocol: as §1

OVCAR-8 = test: NCI-60 five-dose SRB assay; format: cell-based; details: Homo sapiens; OVCAR-8, Ovarian cancer, five-dose test
Protocol: as §1

T-47D = test: NCI-60 five-dose SRB assay; format: cell-based; details: Homo sapiens, T47D, Breast cancer, five-dose test
Protocol: as §1

SK-MEL-28 = test: NCI-60 five-dose SRB assay; format: cell-based; details: Homo sapiens; SK-MEL-28, Melanoma, five-dose test
Protocol: as §1

SN12C = test: NCI-60 five-dose SRB assay; format: cell-based; details: Homo sapiens, Renal cancer, five-dose test
Protocol: as §1

HCT-15 = test: NCI-60 five-dose SRB assay; format: cell-based; details: Homo sapiens; HCT-15, Colon cancer, five-dose test
Protocol: as §1

NCI-H23 = test: NCI-60 five-dose SRB assay; format: cell-based; details: Homo sapiens; NCI-H23, NSCL cancer, five-dose test
Protocol: as §1

HOP-62 = test: NCI-60 five-dose SRB assay; format: cell-based; details: Homo sapiens; HOP-62, NSCL cancer, five-dose test
Protocol: as §1

NCI-H522 = test: NCI-60 five-dose SRB assay; format: cell-based; details: Homo sapiens; NCI-H522, NSCL cancer, five-dose test
Protocol: as §1

A549/ATCC = test: NCI-60 five-dose SRB assay; format: cell-based; details: Homo sapiens, NSCL cancer, five-dose test
Protocol: as §1

UACC-62 = test: NCI-60 five-dose SRB assay; format: cell-based; details: Homo sapiens; UACC-62, Melanoma, five-dose test
Protocol: as §1

SW-620 = test: NCI-60 five-dose SRB assay; format: cell-based; details: Homo sapiens; SW-620, Colon cancer, five-dose test
Protocol: as §1

SR = test: NCI-60 five-dose SRB assay; format: cell-based; details: Homo sapiens, Leukemia, five-dose test
Protocol: as §1

COLO 205 = test: NCI-60 five-dose SRB assay; format: cell-based; details: Homo sapiens; COLO 205, Colon cancer, five-dose test
Protocol: as §1

SF-268 = test: NCI-60 five-dose SRB assay; format: cell-based; details: Homo sapiens; SF-268, CNS cancer, five-dose test
Protocol: as §1

A498 = test: NCI-60 five-dose SRB assay; format: cell-based; details: Homo sapiens; A498, Renal cancer, five-dose test
Protocol: as §1

RPMI-8226 = test: NCI-60 five-dose SRB assay; format: cell-based; details: Homo sapiens; RPMI-8226, Leukemia, five-dose test
Protocol: as §1

K-562 = test: NCI-60 five-dose SRB assay; format: cell-based; details: Homo sapiens, K562; K-562, Leukemia, five-dose test
Protocol: as §1

EKVX = test: NCI-60 five-dose SRB assay; format: cell-based; details: Homo sapiens, NSCL cancer, five-dose test
Protocol: as §1

SK-MEL-5 = test: NCI-60 five-dose SRB assay; format: cell-based; details: Homo sapiens; SK-MEL-5, Melanoma, five-dose test
Protocol: as §1

IGROV1 = test: NCI-60 five-dose SRB assay; format: cell-based; details: Homo sapiens, IGROV-1; IGROV1, Ovarian cancer, five-dose test
Protocol: as §1

SK-OV-3 = test: NCI-60 five-dose SRB assay; format: cell-based; details: Homo sapiens; SK-OV-3, Ovarian cancer, five-dose test
Protocol: as §1

NCI-H460 = test: NCI-60 five-dose SRB assay; format: cell-based; details: Homo sapiens; NCI-H460, NSCL cancer, five-dose test
Protocol: as §1

RXF 393 = test: NCI-60 five-dose SRB assay; format: cell-based; details: Homo sapiens; RXF 393, Renal cancer, five-dose test
Protocol: as §1

HCT-116 = test: NCI-60 five-dose SRB assay; format: cell-based; details: Homo sapiens; HCT-116, Colon cancer, five-dose test
Protocol: as §1

OVCAR-5 = test: NCI-60 five-dose SRB assay; format: cell-based; details: Homo sapiens; OVCAR-5, Ovarian cancer, five-dose test
Protocol: as §1

SNB-75 = test: NCI-60 five-dose SRB assay; format: cell-based; details: Homo sapiens; SNB-75, CNS cancer, five-dose test
Protocol: as §1

PC-3 = test: cells; details: Homo sapiens
Protocol: as §1

MDA-MB-468 = test: cells; details: Homo sapiens
Protocol: as §1

MDA-MB-231/ATCC = test: cells; details: Homo sapiens
Protocol: as §1

B-RAF^V600E = target: T1, B-RAF^V600E (Homo sapiens, UniProt P15056, V600E); test: HotSpot kinase assay (RBC), B-RAF^V600E; format: biochemical
T1 construct: purchased Reaction Biology Corporation (RBC), Kinase HotSpot service
T1 sequence (P15056 whole entry V600E): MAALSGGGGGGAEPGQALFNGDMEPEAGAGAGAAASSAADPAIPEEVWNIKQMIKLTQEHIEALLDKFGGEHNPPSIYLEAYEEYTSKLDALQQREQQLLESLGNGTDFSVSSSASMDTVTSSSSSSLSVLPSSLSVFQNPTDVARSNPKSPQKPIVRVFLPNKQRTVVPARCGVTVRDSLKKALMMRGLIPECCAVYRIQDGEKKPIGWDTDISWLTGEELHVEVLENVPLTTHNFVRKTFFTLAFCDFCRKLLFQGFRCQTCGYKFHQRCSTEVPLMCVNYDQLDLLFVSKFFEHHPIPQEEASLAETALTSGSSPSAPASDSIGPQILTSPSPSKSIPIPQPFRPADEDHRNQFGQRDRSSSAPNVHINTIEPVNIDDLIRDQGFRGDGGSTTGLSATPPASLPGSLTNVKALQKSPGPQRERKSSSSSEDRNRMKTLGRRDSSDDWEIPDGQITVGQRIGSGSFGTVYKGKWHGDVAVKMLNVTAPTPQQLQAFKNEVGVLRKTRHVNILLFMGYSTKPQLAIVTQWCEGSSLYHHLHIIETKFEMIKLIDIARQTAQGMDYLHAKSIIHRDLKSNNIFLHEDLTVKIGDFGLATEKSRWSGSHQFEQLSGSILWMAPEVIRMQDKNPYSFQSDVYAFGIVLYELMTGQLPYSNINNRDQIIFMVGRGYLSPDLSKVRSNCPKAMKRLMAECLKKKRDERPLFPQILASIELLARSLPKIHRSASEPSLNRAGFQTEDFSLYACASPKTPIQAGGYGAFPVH

[1] = 10 µM ATP, 10-dose singlicate IC50 mode

COc1ccc2nc(Nc3cccc(NC(=O)c4ccc(CN5CCN(C)CC5)c(C(F)(F)F)c4)c3)ccc2c1 [Compound 16a, N-(3-((6-methoxyquinolin-2-yl)amino)phenyl)-4-((4-methylpiperazin-1-yl)methyl)-3-(trifluoromethyl)benzamide]
GI50 (MALME-3M): 4.62 µM
GI50 (CCRF-CEM): 2.15 µM
GI50 (MCF7): 1.37 µM
GI50 (OVCAR-3): 5.89 µM
GI50 (DU-145): 5.24 µM
GI50 (786-0): 5 µM
GI50 (UACC-257): 4.35 µM
GI50 (ACHN): 4.88 µM
GI50 (NCI-H226): 4.6 µM
GI50 (BT-549): 5.58 µM
GI50 (OVCAR-4): 4.32 µM
GI50 (KM12): 4.05 µM
GI50 (OVCAR-8): 5.82 µM
GI50 (T-47D): 4.12 µM
GI50 (SK-MEL-28): 5.33 µM
GI50 (SN12C): 5.49 µM
GI50 (HCT-15): 1.18 µM
GI50 (NCI-H23): 5.06 µM
GI50 (HOP-62): 6.36 µM
GI50 (NCI-H522): 4.88 µM
GI50 (A549/ATCC): 4.36 µM
GI50 (UACC-62): 6.45 µM
GI50 (SW-620): 5.89 µM
GI50 (SR): 1.31 µM
GI50 (COLO 205): 5.78 µM
GI50 (SF-268): 5.2 µM
GI50 (A498): 7.35 µM
GI50 (RPMI-8226): 3.14 µM
GI50 (K-562): 0.882 µM
GI50 (EKVX): 4.53 µM
GI50 (SK-MEL-5): 5.1 µM
GI50 (IGROV1): 6.22 µM
GI50 (SK-OV-3): 5.99 µM
GI50 (NCI-H460): 1.88 µM
GI50 (RXF 393): 1.75 µM
GI50 (HCT-116): 2.41 µM
GI50 (OVCAR-5): 6.1 µM
GI50 (SNB-75): 0.684 µM
GI50 (PC-3): 2.9 µM
GI50 (MDA-MB-468): 1.56 µM
GI50 (MDA-MB-231/ATCC): 1.84 µM
IC50 (B-RAF^V600E; [1]): 0.193 ± 0.0076 µM
better kinase inhibition activity compared to 14a, B-RAF^V600E (B-RAF^V600E; ratio of IC50 versus 14a): 2.6 fold

CN1CCN(Cc2ccc(C(=O)Nc3cccc(Nc4ccc5c(O)cccc5n4)c3)cc2C(F)(F)F)CC1 [Compound 17a, N-(3-((5-hydroxyquinolin-2-yl)amino)phenyl)-4-((4-methylpiperazin-1-yl)methyl)-3-(trifluoromethyl)benzamide]
GI50 (MALME-3M): 1.67 µM
GI50 (CCRF-CEM): 2.91 µM
GI50 (MCF7): 1.74 µM
GI50 (OVCAR-3): 3.1 µM
GI50 (DU-145): 4.68 µM
GI50 (786-0): 2.11 µM
GI50 (UACC-257): 1.92 µM
GI50 (ACHN): 2.07 µM
GI50 (NCI-H226): 19.2 µM
GI50 (BT-549): 15.6 µM
GI50 (OVCAR-4): 7.39 µM
GI50 (KM12): 2.3 µM
GI50 (OVCAR-8): 3.56 µM
GI50 (T-47D): 10.7 µM
GI50 (SK-MEL-28): 1.77 µM
GI50 (SN12C): 2.34 µM
GI50 (HCT-15): 1.82 µM
GI50 (NCI-H23): 2.26 µM
GI50 (HOP-62): 3 µM
GI50 (NCI-H522): 1.93 µM
GI50 (A549/ATCC): 4.5 µM
GI50 (UACC-62): 1.73 µM
GI50 (SW-620): 2.24 µM
GI50 (SR): 4.39 µM
GI50 (COLO 205): 1.99 µM
GI50 (SF-268): 3.81 µM
GI50 (A498): 17.5 µM
GI50 (RPMI-8226): 2.92 µM
GI50 (K-562): 2.42 µM
GI50 (EKVX): 3.75 µM
GI50 (SK-MEL-5): 1.68 µM
GI50 (IGROV1): 4.7 µM
GI50 (SK-OV-3): 14.4 µM
GI50 (NCI-H460): 2.19 µM
GI50 (RXF 393): 1.66 µM
GI50 (HCT-116): 2.7 µM
GI50 (OVCAR-5): 3.24 µM
GI50 (SNB-75): 1.85 µM
GI50 (PC-3): 2.53 µM
GI50 (MDA-MB-468): 1.62 µM
GI50 (MDA-MB-231/ATCC): 1.62 µM
IC50 (B-RAF^V600E; [1]): 0.137 ± 0.0132 µM

CN1CCN(Cc2ccc(C(=O)Nc3cccc(Nc4ccc5cc(O)ccc5n4)c3)cc2C(F)(F)F)CC1 [Compound 18a, N-(3-((6-hydroxyquinolin-2-yl)amino)phenyl)-4-((4-methylpiperazin-1-yl)methyl)-3-(trifluoromethyl)benzamide]
GI50 (MALME-3M): 1.59 µM
GI50 (CCRF-CEM): 3.48 µM
GI50 (MCF7): 2.46 µM
GI50 (OVCAR-3): 11.2 µM
GI50 (DU-145): 10.5 µM
GI50 (786-0): 3.13 µM
GI50 (UACC-257): 7.35 µM
GI50 (ACHN): 7.59 µM
GI50 (NCI-H226): 16 µM
GI50 (BT-549): 12.2 µM
GI50 (OVCAR-4): 11.2 µM
GI50 (KM12): 3.16 µM
GI50 (OVCAR-8): 13.2 µM
GI50 (T-47D): 14.6 µM
GI50 (SK-MEL-28): 1.79 µM
GI50 (SN12C): 14.1 µM
GI50 (HCT-15): 2.09 µM
GI50 (NCI-H23): 13.9 µM
GI50 (HOP-62): 12.1 µM
GI50 (NCI-H522): 4.82 µM
GI50 (A549/ATCC): 8.7 µM
GI50 (UACC-62): 15.4 µM
GI50 (SW-620): 2.3 µM
GI50 (SR): 2.68 µM
GI50 (COLO 205): 10.2 µM
GI50 (SF-268): 10.4 µM
GI50 (A498): 22.5 µM
GI50 (RPMI-8226): 2.65 µM
GI50 (K-562): 1.88 µM
GI50 (EKVX): 14.2 µM
GI50 (SK-MEL-5): 2.35 µM
GI50 (IGROV1): 16.6 µM
GI50 (SK-OV-3): 16.5 µM
GI50 (NCI-H460): 3.84 µM
GI50 (RXF 393): 3.55 µM
GI50 (HCT-116): 3.93 µM
GI50 (OVCAR-5): 14.2 µM
GI50 (SNB-75): 0.656 µM
GI50 (PC-3): 4.68 µM
GI50 (MDA-MB-468): 2.23 µM
GI50 (MDA-MB-231/ATCC): 2.54 µM
IC50 (B-RAF^V600E; 1 µM ATP): 0.0843 ± 0.009 µM
IC50 (B-RAF^V600E; [1]): 0.114 ± 0.00495 µM
